# Like-named read-outs stand apart in the source and are kept apart here.
# Target: T1, D2-receptors (presynaptic dopaminergic receptors) (Oryctolagus cuniculus, UniProt G1T1Q0)
# T1 construct: perfused rabbit ear artery protocol; from tissue; host or cells: rabbit ear artery (perfused, isolated)
# Test: perfused rabbit ear artery protocol (D2-agonist activity)
# Type: cell-based
# [1] = perfused rabbit ear artery, D2-agonist activity, read-out: EC50
# T1 sequence (G1T1Q0 1-443): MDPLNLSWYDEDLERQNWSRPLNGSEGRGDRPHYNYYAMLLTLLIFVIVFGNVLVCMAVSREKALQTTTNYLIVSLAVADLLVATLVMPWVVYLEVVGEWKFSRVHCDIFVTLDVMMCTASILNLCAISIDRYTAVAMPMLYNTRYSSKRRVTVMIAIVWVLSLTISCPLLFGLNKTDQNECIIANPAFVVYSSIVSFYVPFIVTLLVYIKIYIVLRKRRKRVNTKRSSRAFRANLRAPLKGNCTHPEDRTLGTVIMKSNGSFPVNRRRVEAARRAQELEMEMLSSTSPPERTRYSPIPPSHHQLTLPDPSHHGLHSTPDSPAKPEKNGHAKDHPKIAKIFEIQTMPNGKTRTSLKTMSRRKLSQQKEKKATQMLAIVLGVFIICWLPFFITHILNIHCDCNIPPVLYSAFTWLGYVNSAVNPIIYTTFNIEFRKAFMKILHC
times more potent than its oxa congener [times],times more potent than the corresponding indolone [times],EC50 [1] [nM],Structure (SMILES),EC50 [nM]
~40,10,0.2,"CCCN(CCC)CCc1ccc(O)c2[nH]c(=O)sc12 [Compound A, 4-hydroxy-7-[2-(di-n-propylamino)ethyl]-1,3-benzthiazol-2(3H)-one]",
,,200,"CCCN(CCC)CCc1ccc(O)c2[nH]c(=O)ccc12 [E, 8-hydroxy-5-[2-(di-n-propylamino)ethyl]-carbostyril, reference compound]",
,,,"NCCc1ccc(O)c(O)c1 [D, dopamine, reference compound]",40
,,50,"CCCN(CCC)CCc1c(Cl)cc(O)c2nc(O)sc12 [B, 4-hydroxy-6-chloro-7-[2-(di-n-propylamino)ethyl]-1,3-benzthiazol-2(3H)-one]",
,,8,"CCCN(CCC)CCc1ccc(O)c2[nH]c(=O)oc12 [C, 4-hydroxy-7-[2-(di-n-propylamino)ethyl]-1,3-benzoxazol-2(3H)-one]",

# From patent publication US4554284A, “7-(2-Aminoethyl)-1,3-benzthia- or oxa-zol-2(3H)-ones” (Smithkline Beckman Corporation, priority 1984, dated 1985)
